US20230287003A1, “BCL6 INHIBITORS” (Cancer Research Technology Limited, priority 2018, published 2023)

Target: human BCL6 BTB domain (Trx-6×His-BCL6) / BCOR-AF633 peptide (Homo sapiens (Human), UniProt P41182)
Assay: HTRF assay
Format: binding
Conditions: 1 nM Trx-6×His-BCL6, 300 nM BCOR-AF633 peptide, 2 hours incubation; for IC50: HTRF avg pIC50 (1 nM)

Row | Compound | HTRF avg pIC50 (1 nM) | IC50 [nM]
1 | Cn1c(=O)c2c(c3cc(Nc4ccnc(Cl)c4C#N)ccc31)NC(C(F)F)CCO2 (stereo not drawn) [Example 1p, 2-chloro-4-((2-(difluoromethyl)-7-methyl-6-oxo-1,2,3,4,6,7-hexahydro-[1,4]oxazepino[2,3-c]quinolin-10-yl)amino)nicotinonitrile] | 5.67 | –
2 | CC1CSc2c(c3cc(Nc4ccnc(Cl)c4C#N)ccc3n(C)c2=O)N1 (stereo not drawn) [Example 1t, 2-chloro-4-((2,6-dimethyl-5-oxo-2,3,5,6-tetrahydro-1H-[1,4]thiazino[2,3-c]quinolin-9-yl)amino)nicotinonitrile] | 6.00 | –
3 | Cn1c(=O)c2c(c3cc(Nc4ccncc4Cl)ccc31)N[C@@H](C1CC1)C(F)(F)CO2 [Example 4d, (S)-10-((3-chloropyridin-4-yl)amino)-2-cyclopropyl-3,3-difluoro-7-methyl-1,2,3,4-tetrahydro-[1,4]oxazepino[2,3-c] quinolin-6(7H)-one] | 7.99 | –
4 | COCC1(C)CCOc2c(c3cc(Nc4nc(-n5ccc(C(F)(F)F)n5)ncc4Cl)ccc3n(C)c2=O)N1 (stereo not drawn) [Example 5b, 10-((5-chloro-2-(3-(trifluoromethyl)-1H-pyrazol-1-yl)pyrimidin-4-yl)amino)-2-(methoxymethyl)-2,7-dimethyl-1,2,3,4-tetrahydro-[1,4]oxazepino[2,3-c]quinolin-6(7H)-one] | 6.09 | –
5 | Cn1c(=O)c2c(c3cc(Nc4nc(-n5ccc(C(F)(F)F)n5)ncc4Cl)ccc31)NC1(CCOC1)CCO2 (stereo not drawn) [Example 5j, 10′-((5-chloro-2-(3-(trifluoromethyl)-1H-pyrazol-1-yl)pyrimidin-4-yl)amino)-7′-methyl-3′,4,4′,5-tetrahydro-1′H,2H-spiro[furan-3,2′-[1,4]oxazepino[2,3-c]quinolin]-6′(7′H)-one] | 5.79 | –
6 | C[C@H]1COC(=O)c2c(c3cc(Nc4ccnc(Cl)c4C#N)ccc3n(C)c2=O)N1 [Example 6a, (S)-2-chloro-4-((2,7-dimethyl-5,6-dioxo-1,2,3,5,6,7-hexahydro-[1,4]oxazepino[6,5-c]quinolin-10-yl)amino)nicotinonitrile] | 7.01 | –
7 | CC1Nc2c(c(=O)n(C)c3ccc(Nc4ccnc(Cl)c4C#N)cc23)C(=O)OC1C (stereo not drawn) [Example 6d, 2-chloro-4-((2,3,7-trimethyl-5,6-dioxo-1,2,3,5,6,7-hexahydro-[1,4]oxazepino[6,5-c]quinolin-10-yl)amino)nicotinonitrile] | – | 214
8 | C[C@H]1COC(=O)c2c(c3cc(Nc4nc(N5CCC6(CCCN(C)C6=O)CC5)ncc4Cl)ccc3n(C)c2=O)N1 [Example 8e, (S)-10-((5-chloro-2-(2-methyl-1-oxo-2,9-diazaspiro[5.5]undecan-9-yl)pyrimidin-4-yl)amino)-2,7-dimethyl-2,3-dihydro-[1,4]oxazepino[6,5-c]quinoline-5,6(1H,7H)-dione] | 6.69 | –
9 | C[C@H]1COC(=O)c2c(c3cc(Nc4nc(N5CCCC5=O)ncc4Cl)ccc3n(C)c2=O)N1 [Example 8i, (S)-10-((5-chloro-2-(2-oxopyrrolidin-1-yl)pyrimidin-4-yl)amino)-2,7-dimethyl-2,3-dihydro-[1,4]oxazepino[6,5-c]quinoline-5,6(1H,7H)-dione] | 6.23 | –
10 | Cn1c(=O)c2c(c3cc(Nc4nc(N5C6CCCC5CC6)ncc4Cl)ccc31)N[C@@H](C1CC1)COC2=O [Example 8j, (2S)-10-((2-(8-azabicyclo[3.2.1]octan-8-yl)-5-chloropyrimidin-4-yl)amino)-2-cyclopropyl-7-methyl-2,3-dihydro-[1,4]oxazepino[6,5-c]quinoline-5,6(1H,7H)-dione] | 6.65 | –
11 | C[C@@H]1CN(c2ncc(Cl)c(Nc3ccc4c(c3)c3c(c(=O)n4C)C(=O)OC[C@H](C4CC4)N3)n2)C[C@H](C)C1(F)F [Example 8k, (S)-10-((5-chloro-2-((3S,5R)-4,4-difluoro-3,5-dimethylpiperidin-1-yl)pyrimidin-4-yl)amino)-2-cyclopropyl-7-methyl-2,3-dihydro-[1,4]oxazepino[6,5-c]quinoline-5,6(1H,7H)-dione] | 6.38 | –
12 | C[C@@H]1C[C@H](C)CN(c2ncc(Cl)c(Nc3ccc4c(c3)c3c(c(=O)n4C)C(=O)OC[C@H](C4CC4)N3)n2)C1 [Example 8l, (S)-10-((5-chloro-2-((3R,5S)-3,5-dimethylpiperidin-1-yl)pyrimidin-4-yl)amino)-2-cyclopropyl-7-methyl-2,3-dihydro-[1,4]oxazepino[6,5-c]quinoline-5,6(1H,7H)-dione] | 6.36 | –
13 | C[C@@H]1CN(c2ncc(Cl)c(Nc3ccc4c(c3)c3c(c(=O)n4C)C(=O)OC[C@H](C4CC4)N3)n2)C[C@H](C)O1 [Example 8n, (S)-10-((5-chloro-2-((2S,6R)-2,6-dimethylmorpholino)pyrimidin-4-yl)amino)-2-cyclopropyl-7-methyl-2,3-dihydro-[1,4]oxazepino[6,5-c]quinoline-5,6(1H,7H)-dione] | 6.19 | –
14 | C[C@H]1COCc2c(c3cc(Nc4ccnc(Cl)c4C#N)ccc3n(C)c2=O)N1 [Example 9a, (S)-2-chloro-4-((2,7-dimethyl-6-oxo-1,2,3,5,6,7-hexahydro-[1,4]oxazepino[6,5-c]quinolin-10-yl)amino)nicotinonitrile] | 5.66 | –
15 | CC1CCc2c(c3cc(Nc4ccnc(Cl)c4C#N)ccc3n(C)c2=O)N1 (stereo not drawn) [Example 10a, 2-chloro-4-((2,6-dimethyl-5-oxo-1,2,3,4,5,6-hexahydrobenzo[h][1,6]-naphthyridin-9-yl)amino)nicotinonitrile] | 5.84 | –
16 | C[C@@H]1CN(c2ncc(Cl)c(Nc3ccc4c(c3)c3c(c(=O)n4C)SCC[C@H](C4CC4)N3)n2)C[C@H](C)C1(F)F [Example 12m, (R)-10-((5-chloro-2-((3S,5R)-4,4-difluoro-3,5-dimethylpiperidin-1-yl)pyrimidin-4-yl)amino)-2-cyclopropyl-7-methyl-1,2,3,4-tetrahydro-[1,4]thiazepino[2,3-c]quinolin-6(7H)-one] | 6.84 | –
17 | C[C@@H]1CN(c2ncc(Cl)c(Nc3ccc4c(c3)c3c(c(=O)n4C)OCC(F)(F)[C@H](C4CC4)N3)n2)C[C@H](C)C1(F)F [Example 12o, (S)-10-((5-chloro-2-((3S,5R)-4,4-difluoro-3,5-dimethylpiperidin-1-yl)pyrimidin-4-yl)amino)-2-cyclopropyl-3,3-difluoro-7-methyl-1,2,3,4-tetrahydro-[1,4]oxazepino[2,3-c]quinolin-6(7H)-one] | 7.74 | –

Now from value to compound:

Row | HTRF avg pIC50 (1 nM) | IC50 [nM] | Compound
18 | 5.70 | – | Cn1c(=O)c2c(c3cc(Nc4ccnc(Cl)c4C#N)ccc31)NC(C1CCC1)CO2 (stereo not drawn) [Example 1n, 2-chloro-4-((2-cyclobutyl-6-methyl-5-oxo-2,3,5,6-tetrahydro-1H-[1,4]oxazino[2,3-c]quinolin-9-yl)amino)nicotinonitrile]
19 | 6.14 | – | Cn1c(=O)c2c(c3cc(Nc4ccnc(Cl)c4C#N)ccc31)NC1(CCOC1)CCO2 (stereo not drawn) [Example 1o, 2-chloro-4-((7′-methyl-6′-oxo-3′,4,4′,5,6′,7′-hexahydro-1′H,2H-spiro[furan-3,2′-[1,4]oxazepino[2,3-c]quinolin]-10′-yl)amino)nicotinonitrile]
20 | 7.26 | – | C[C@H]1CCOc2c(c3cc(Nc4cc(C(=O)O)nc(Cl)c4C#N)ccc3n(C)c2=O)N1 [Example 2a, (S)-6-chloro-5-cyano-4-((2,7-dimethyl-6-oxo-1,2,3,4,6,7-hexahydro-[1,4]ox-azepino[2,3-c]quinolin-10-yl)amino)picolinic acid]
21 | – | 8.91 | Cn1c(=O)c2c(c3cc(Nc4cc(C(=O)O)nc(Cl)c4C#N)ccc31)N[C@@H](C1CC1)CCO2 [Example 2b, (R)-6-chloro-5-cyano-4-((2-cyclopropyl-7-methyl-6-oxo-1,2,3,4,6,7-hexahydro-[1,4]oxazepino[2,3-c]quinolin-10-yl)amino)picolinic acid]
22 | – | 166 | Cn1c(=O)c2c(c3cc(Nc4ccnc(Cl)c4C#N)ccc31)N[C@@H](C1CC1)COC2=O [Example 6b, (S)-2-chloro-4-((2-cyclopropyl-7-methyl-5,6-dioxo-1,2,3,5,6,7-hexahydro-[1,4]oxazepino[6,5-c]quinolin-10-yl)amino)nicotinonitrile]
23 | 6.71 | – | Cn1c(=O)c2c(c3cc(Nc4ccnc(Cl)c4C#N)ccc31)NC(C1CC1)COC2=O (stereo not drawn) [Example 6c, 2-chloro-4-((2-cyclopropyl-7-methyl-5,6-dioxo-1,2,3,5,6,7-hexahydro-[1,4]oxazepino[6,5-c]quinolin-10-yl)amino)nicotinonitrile]
24 | 6.78 | – | C[C@H]1COC(=O)c2c(c3cc(Nc4nc(N5CCC(C(=O)N(C)C)CC5)ncc4Cl)ccc3n(C)c2=O)N1 [Example 8d, (S)-1-(5-chloro-4-((2,7-dimethyl-5,6-dioxo-1,2,3,5,6,7-hexahydro-[1,4]oxazepino[6,5-c]quinolin-10-yl)amino)pyrimidin-2-yl)-N,N-dimethylpiperidine-4-carboxamide]
25 | 6.47 | – | C[C@H]1COC(=O)c2c(c3cc(Nc4nc(N5CC6CCC(C6)C5)ncc4Cl)ccc3n(C)c2=O)N1 [Example 8h, (2S)-10-((2-(3-azabicyclo[3.2.1]octan-3-yl)-5-chloropyrimidin-4-yl)amino)-2,7-dimethyl-2,3-dihydro-[1,4]oxazepino[6,5-c]quinoline-5,6(1H,7H)-dione]
26 | 6.93 | – | C[C@@H]1CN(c2ncc(Cl)c(Nc3ccc4c(c3)c3c(c(=O)n4C)OCC[C@H](C4CC4)N3)n2)C[C@H](C)[C@H]1F [Example 12e, (R)-10-((5-chloro-2-((3S,4R,5R)-4-fluoro-3,5-dimethylpiperidin-1-yl)pyrimidin-4-yl)amino)-2-cyclopropyl-7-methyl-1,2,3,4-tetrahydro-[1,4]oxazepino[2,3-c]quinolin-6(7H)-one]
27 | 7.94 | – | Cn1c(=O)c2c(c3cc(Nc4nc(N5CCC(F)(F)CC5)ncc4Cl)ccc31)N[C@@H](C1CC1)C(F)(F)CO2 [Example 12n, (S)-10-((5-chloro-2-(4,4-difluoropiperidin-1-yl)pyrimidin-4-yl)amino)-2-cyclopropyl-3,3-difluoro-7-methyl-1,2,3,4-tetrahydro-[1,4]oxazepino[2,3-c]quinolin-6(7H)-one]
